Data from paper PMC9069370, “Integrated Design of a Membrane‐Lytic Peptide‐Based Intravenous Nanotherapeutic Suppresses Triple‐Negative Breast Cancer” (Advanced Science, 2022).
Peptide text beside a SMILES is read from it.

Columns and labels:
[1] = Tryptophan fluorescent binding assay; settings: tryptophan fluorescence; 50 µM peptide, lipid titrated 0-5000 µM; phosphate buffered saline 1X, pH 7.4; values as lipid per peptide
Procedure, shortened: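 Peptides at 50 µM were incubated for 1 h with increasing amounts of 3:1 POPC:POPG unilamellar vesicles in 1X phosphate buffered saline, pH 7.4. Tryptophan emission (300–450 nm, excitation 280 nm) was recorded on a Cytation 5 multi-mode reader. The lipid concentration giving 50 % peptide binding was determined and reported as a lipid-to-peptide ratio.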

[2] = test system: HEK293T; assay: cells; type: cell-based, human; settings: 72 h
[3] = test system: U2OS; type: cell-based, human; settings: 72 h
[4] = test system: MCF‐10A; assay: cells; type: cell-based, human; settings: 72 h
Source text: (§1) […], and MCF-10A cells were maintained in MEGM with supplements and growth factors bovine pituitary extract, hydrocortisone, human epidermal growth factor, insulin, and gentamicin/amphotericin-B.

[5] = test system: HMLER‐shEcad; assay: cells; type: cell-based, human; settings: 72 h
Source text: as §1

[6] = test system: HMLER; assay: cells; type: cell-based, human; settings: 72 h
Source text: as §1

[7] = ANTS/DPX liposome leakage assay; settings: 0.5 mM vesicles, peptide 0-20 µM, 3 h incubation, lipid per peptide; for Peptide Concentration-induced 50 % ANTS/DPX leakage at pH 4.8 (L/P), 3POPC/1POPG Vesicle / Peptide Concentration-induced 50 % ANTS/DPX leakage at pH 4.8 (L/P), POPC Vesicle: HCl-adjusted PBS 1X pH 4.8; for Peptide Concentration-induced 50 % ANTS/DPX leakage at pH 7.4 (L/P), 3POPC/1POPG Vesicle / Peptide Concentration-induced 50 % ANTS/DPX leakage at pH 7.4 (L/P), POPC Vesicle: PBS 1X pH 7.4, high ratio = more potent
Procedure, shortened: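 The value is the lipid-to-peptide ratio giving 50% ANTS/DPX release, with fluorescence (350/510 nm) read after 3 h and scaled to 10% Triton as full leakage. Peptides were titrated into 0.5 mM LUVs of POPC or 3POPC/1POPG (0.1 µm, free dye removed by gel filtration) in PBS at pH 7.4 or 4.8.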

Compound: CC(C)C[C@H](NC(=O)CN)C(=O)N[C@@H](CC(C)C)C(=O)N[C@@H](Cc1c[nH]cn1)C(=O)N[C@@H](CC(C)C)C(=O)N[C@@H](CC(C)C)C(=O)N[C@@H](CCCCN)C(=O)N[C@@H](CC(C)C)C(=O)N[C@@H](CC(C)C)C(=O)N[C@@H](CC(C)C)C(=O)N[C@@H](CCC(=O)O)C(=O)N[C@@H](C)C(=O)N[C@@H](C)C(=O)NCC(=O)N[C@@H](Cc1c[nH]c2ccccc12)C(N)=O [HKE] (H-GLLHLLKLLLEAAGW-NH2)
- Lipid Concentration-induced 50% Peptide Binding (L/P), 3POPC/1POPG Vesicle [1]: 0.25 L/P
- Lipid Concentration-induced 50% Peptide Binding (L/P), POPC Vesicle [1]: 0.75 L/P
- IC50 [2]: 5.15 ± 0.64 µM
- IC50 [3]: 16 ± 0.78 µM
- IC50 [4]: 7.6 ± 0.42 µM
- IC50 [5]: 1.9 ± 0.42 µM
- IC50 [6]: 2.7 ± 0.28 µM
- Peptide Concentration-induced 50 % ANTS/DPX leakage at pH 4.8 (L/P), 3POPC/1POPG Vesicle [7]: 94 L/P
- Peptide Concentration-induced 50 % ANTS/DPX leakage at pH 4.8 (L/P), POPC Vesicle [7]: 173 L/P
- Peptide Concentration-induced 50 % ANTS/DPX leakage at pH 7.4 (L/P), 3POPC/1POPG Vesicle [7]: 365 L/P
- Peptide Concentration-induced 50 % ANTS/DPX leakage at pH 7.4 (L/P), POPC Vesicle [7]: 692 L/P

Compound: CC(C)C[C@H](NC(=O)CN)C(=O)N[C@@H](CC(C)C)C(=O)N[C@@H](Cc1c[nH]cn1)C(=O)N[C@@H](CC(C)C)C(=O)N[C@@H](CC(C)C)C(=O)N[C@@H](CCCCN)C(=O)N[C@@H](CC(C)C)C(=O)N[C@@H](CC(C)C)C(=O)N[C@@H](CC(C)C)C(=O)N[C@@H](Cc1c[nH]cn1)C(=O)N[C@@H](C)C(=O)N[C@@H](C)C(=O)NCC(=O)N[C@@H](Cc1c[nH]c2ccccc12)C(N)=O [HKH] (H-GLLHLLKLLLHAAGW-NH2)
- Lipid Concentration-induced 50% Peptide Binding (L/P), 3POPC/1POPG Vesicle [1]: 0.38 L/P
- Lipid Concentration-induced 50% Peptide Binding (L/P), POPC Vesicle [1]: 0.18 L/P
- IC50 [2]: 5.7 ± 0.99 µM
- IC50 [3]: 18.9 ± 1.24 µM
- IC50 [4]: 6.1 µM
- IC50 [5]: 3.1 ± 0.57 µM
- IC50 [6]: 3.45 ± 0.21 µM
- Peptide Concentration-induced 50 % ANTS/DPX leakage at pH 4.8 (L/P), 3POPC/1POPG Vesicle [7]: 47 L/P
- Peptide Concentration-induced 50 % ANTS/DPX leakage at pH 4.8 (L/P), POPC Vesicle [7]: 193 L/P
- Peptide Concentration-induced 50 % ANTS/DPX leakage at pH 7.4 (L/P), 3POPC/1POPG Vesicle [7]: 274 L/P
- Peptide Concentration-induced 50 % ANTS/DPX leakage at pH 7.4 (L/P), POPC Vesicle [7]: 1077 L/P

Compound: CC(C)C[C@H](NC(=O)CN)C(=O)N[C@@H](CC(C)C)C(=O)N[C@@H](Cc1c[nH]cn1)C(=O)N[C@@H](CC(C)C)C(=O)N[C@@H](CC(C)C)C(=O)N[C@@H](CCCCN)C(=O)N[C@@H](CC(C)C)C(=O)N[C@@H](CC(C)C)C(=O)N[C@@H](CC(C)C)C(=O)N[C@@H](CCCCN)C(=O)N[C@@H](C)C(=O)N[C@@H](C)C(=O)NCC(=O)N[C@@H](Cc1c[nH]c2ccccc12)C(N)=O [HKK] (H-GLLHLLKLLLKAAGW-NH2)
- Lipid Concentration-induced 50% Peptide Binding (L/P), 3POPC/1POPG Vesicle [1]: 0.14 L/P
- Lipid Concentration-induced 50% Peptide Binding (L/P), POPC Vesicle [1]: 0.18 L/P
- IC50 [2]: 9.5 ± 0.99 µM
- IC50 [3]: 12.23 ± 0.11 µM
- IC50 [4]: 2.18 ± 0.39 µM
- IC50 [5]: 2.6 ± 0.42 µM
- IC50 [6]: 3.4 ± 0.71 µM
- Peptide Concentration-induced 50 % ANTS/DPX leakage at pH 4.8 (L/P), 3POPC/1POPG Vesicle [7]: 106 L/P
- Peptide Concentration-induced 50 % ANTS/DPX leakage at pH 4.8 (L/P), POPC Vesicle [7]: 106 L/P
- Peptide Concentration-induced 50 % ANTS/DPX leakage at pH 7.4 (L/P), 3POPC/1POPG Vesicle [7]: 90 L/P
- Peptide Concentration-induced 50 % ANTS/DPX leakage at pH 7.4 (L/P), POPC Vesicle [7]: 657 L/P

Compound: CC(C)C[C@H](NC(=O)CN)C(=O)N[C@@H](CC(C)C)C(=O)N[C@@H](CCCCN)C(=O)N[C@@H](CC(C)C)C(=O)N[C@@H](CC(C)C)C(=O)N[C@@H](CCC(=O)O)C(=O)N[C@@H](CC(C)C)C(=O)N[C@@H](CC(C)C)C(=O)N[C@@H](CC(C)C)C(=O)N[C@@H](Cc1c[nH]cn1)C(=O)N[C@@H](C)C(=O)N[C@@H](C)C(=O)NCC(=O)N[C@@H](Cc1c[nH]c2ccccc12)C(N)=O [KEH] (H-GLLKLLELLLHAAGW-NH2)
- Lipid Concentration-induced 50% Peptide Binding (L/P), 3POPC/1POPG Vesicle [1]: 0.50 L/P
- Lipid Concentration-induced 50% Peptide Binding (L/P), POPC Vesicle [1]: 1.00 L/P
- IC50 [2]: 5.65 ± 0.07 µM
- IC50 [3]: 49.2 ± 5.3 µM
- IC50 [4]: 20 µM
- IC50 [5]: 2.35 ± 0.07 µM
- IC50 [6]: 3.3 ± 0.42 µM
- Peptide Concentration-induced 50 % ANTS/DPX leakage at pH 4.8 (L/P), 3POPC/1POPG Vesicle [7]: 68 L/P
- Peptide Concentration-induced 50 % ANTS/DPX leakage at pH 4.8 (L/P), POPC Vesicle [7]: 188 L/P
- Peptide Concentration-induced 50 % ANTS/DPX leakage at pH 7.4 (L/P), 3POPC/1POPG Vesicle [7]: 286 L/P
- Peptide Concentration-induced 50 % ANTS/DPX leakage at pH 7.4 (L/P), POPC Vesicle [7]: 995 L/P
